Here are results for five compounds from EPA's ToxRefDB 2.

Data set [1] relates to mouse. The settings on record: Subchronic oral toxicity in rodents, b6c3f1, Water, dose end: 13 week, group: systemic.
Data set [2] deals with rabbit. The settings on record: Sub-acute dermal toxicity, new zealand white, Topical, dose end: 21 day, group: systemic.
In data set [3] the test system is rat. Particulars: Prenatal developmental toxicity study, wistar, Oral, Gavage/Intubation, dose end: 15 GD.
The subject of data set [4] is rabbit. The settings on record: Prenatal developmental toxicity study, new zealand white, Oral, Capsule, dose end: 18 GD.
For data set [5], the system named is dog. The settings on record: Chronic toxicity, beagle, Oral, Feed, dose end: 12 month, group: systemic.
For data set [6], the system named is rat. The settings on record: Combined chronic toxicity/carcinogenicity; sprague dawley; Oral; Feed; dose end: 115 week; group: systemic; systemic / in life observation / body weight / body weight.
Data set [7] relates to mouse. Particulars: Combined chronic toxicity/carcinogenicity, cd1, Oral, Feed, dose end: 89 week, group: systemic.
Data set [8] deals with rat. Particulars: Multigenerational reproductive toxicity study, sprague dawley, Oral, Feed, dose end: 2 generation.
In data set [9] the test system is mouse. The settings on record: Carcinogenicity, cd1, Oral, Feed, dose end: 18 month, group: systemic.
In data set [10] the test system is rat. Particulars: Combined chronic toxicity/carcinogenicity, sprague dawley, Oral, Feed, dose end: 24 month, group: systemic.
Data set [11] concerns rat. Particulars: Subchronic oral toxicity in rodents, sprague dawley, Feed, dose end: 90 day, group: systemic.
In data set [12] the test system is rat. Particulars: Multigenerational reproductive toxicity study, sprague dawley, Oral, Feed, dose end: 2 generation. The source holds these as a separate data set.
Data set [13] deals with dog. The settings on record: Chronic toxicity, beagle, Oral, Capsule, dose end: 52 week, group: systemic.
The test system of data set [14] is mouse. The settings on record: Carcinogenicity; cd1; Oral; Feed; dose end: 18 month; group: systemic; systemic / pathology microscopic / liver / vacuolization + systemic / pathology microscopic / seminal vesicle / distended + systemic / ….
Data set [15] concerns rat. The settings on record: Prenatal developmental toxicity study, other, Oral, Gavage/Intubation, dose end: 16 GD.
The test system of data set [16] is rabbit. The settings on record: Prenatal developmental toxicity study, new zealand white, Oral, Gavage/Intubation, dose end: 19 GD.
Data set [17] concerns rat. The settings on record: Combined chronic toxicity/carcinogenicity, other, Oral, Feed, dose end: 24 month, group: systemic.
[18] abbreviates: systemic / in life observation / body weight / body weight + systemic / in life observation / clinical signs / emaciation + systemic / in ….
The mark [19] stands for this setting: systemic / pathology microscopic / nose / degeneration.
[20] abbreviates: systemic / in life observation / clinical signs / erythema.
[21] abbreviates: systemic / in life observation / clinical signs / erythema + systemic / in life observation / body weight / body weight + systemic / in life….
Where [22] appears, read: group: developmental, developmental / developmental malformation / eye / anophthalmia + developmental / developmental malformation / eye / microphthalmia + ….
The mark [23] stands for this setting: group: maternal, systemic / in life observation / body weight / body weight gain + systemic / in life observation / clinical signs / labored respiration.
Setting [24] is: group: maternal, systemic / in life observation / body weight / body weight gain + systemic / in life observation / clinical signs / labored respiration + ….
The mark [25] stands for this setting: group: developmental, developmental / developmental malformation / bone / irregular ossification.
The mark [26] stands for this setting: group: maternal, reproductive / reproductive performance / aborted / aborted + systemic / in life observation / clinical signs / ataxia.
Where [27] appears, read: group: maternal, reproductive / reproductive performance / aborted / aborted + systemic / in life observation / clinical signs / ataxia + systemic / in life ….
Where [28] appears, read: systemic / pathology microscopic / lung / [other] + systemic / in life observation / clinical signs / inappetence + systemic / in life ….
Where [29] appears, read: systemic / in life observation / mortality / mortality.
[30] abbreviates: group: offspring, systemic / in life observation / body weight / offspring (pup) weight.
Where [31] appears, read: group: offspring, systemic / organ weight / liver / relative to body weight.
Setting [32] is: group: parental, systemic / organ weight / kidney / relative to body weight.
The mark [33] stands for this setting: systemic / hematology / anemia / anemia - nos + systemic / hematology / erythrocyte (rbc) count differential / erythrocyte (rbc) + systemic….
Setting [34] is: systemic / in life observation / clinical signs / fur (altered appearance) + systemic / pathology gross / penis / prolapse.
[35] abbreviates: systemic / hematology / erythrocyte (rbc) count differential / erythrocyte (rbc) + systemic / hematology / hematocrit (hct) / hematocrit (….
[36] abbreviates: systemic / in life observation / clinical signs / fur (altered appearance) + systemic / in life observation / clinical signs / urine, ….
The mark [37] stands for this setting: group: parental, systemic / pathology gross / spleen / discolored + systemic / pathology microscopic / spleen / congestion + systemic / pathology microscopic….
Setting [38] is: group: reproductive, reproductive / offspring survival early / litter size / litter size.
Where [39] appears, read: systemic / clinical chemistry / cholesterol / cholesterol + systemic / clinical chemistry / bilirubin / total bilirubin + systemic / ….
[40] abbreviates: systemic / hematology / platelet / platelet + systemic / organ weight / spleen / absolute + systemic / organ weight / spleen / relative to ….
Setting [41] is: group: developmental, developmental / developmental malformation / bone / short + developmental / developmental malformation / bone / supernumerary.
Setting [42] is: group: developmental, developmental / developmental malformation / bone / short + developmental / developmental malformation / bone / supernumerary + ….
Where [43] appears, read: group: maternal, systemic / in life observation / body weight / body weight gain + systemic / in life observation / food consumption / food consumption.
[44] abbreviates: group: maternal, systemic / in life observation / body weight / body weight gain + systemic / in life observation / food consumption / food consumption + ….
The mark [45] stands for this setting: group: developmental, developmental / developmental malformation / other / other.
[46] abbreviates: group: maternal, reproductive / reproductive performance / postimplantation loss / postimplantation loss + reproductive / reproductive performance / ….
Setting [47] is: systemic / organ weight / brain / absolute + systemic / organ weight / brain / relative to body weight.

A value given as a limit tells only on which side of the number the result lay.

With `ON=C1CCCCC1` [Cyclohexanone oxime], in the data set on mouse [1] (setting [18]), the LOAEL was > 1150 mg/kg/day and the no observed adverse effect level (NOAEL) is ≥ 1150 mg/kg/day. Also, in the data set with mouse [1] (setting [19]), the LEL stood at 132 mg/kg/day and the NEL was < 132 mg/kg/day.

As for `Cc1cc(O)ccc1Cl` [4-Chloro-3-methylphenol], the lowest-observed-adverse-effect level (LOAEL) with rabbit [2] (setting [20]) was 10 mg/kg/day; with rat [3] (setting [22]) it was 300 mg/kg/day; in the data set with rat [3] (setting [23]), 100 mg/kg/day. For the same compound, the values for the no-observed-adverse-effect level (NOAEL) with rabbit [2] (setting [20]), with rat [3] (setting [22]) and in the data set with rat [3] (setting [24]) were < 10 mg/kg/day, 100 mg/kg/day and 30 mg/kg/day, respectively. Moreover, the figures for the LEL in the data set on rabbit [2] (setting [21]), in the data set on rat [3] (setting [22]) and in the data set on rat [3] (setting [23]) were 10 mg/kg/day, 300 mg/kg/day and 100 mg/kg/day, respectively. Moreover, the NEL was < 10 mg/kg/day in the data set on rabbit [2] (setting [21]), 100 mg/kg/day in the data set on rat [3] (setting [22]) and 30 mg/kg/day in the data set with rat [3] (setting [24]).

On to `COc1c(Cl)ccc(Cl)c1C(=O)O` [Dicamba], for which the LEL was found to be 300 mg/kg/day with rabbit [4] (setting [25]); 150 mg/kg/day in the data set with rabbit [4] (setting [26]); 11 mg/kg/day in the data set on dog [5] (systemic / pathology microscopic / lung / [other] + systemic / in life observation / clinical signs / inappetence); 125 mg/kg/day in the data set with rat [6]; 121 mg/kg/day with mouse [7] (systemic / organ weight / kidney / nos); 40 mg/kg/day in the data set with rat [8] (setting [31]). Further, the LEL in the data set on rat [8] (setting [32]) came to 40 mg/kg/day. The LOAEL in the data set on rabbit [4] (setting [25]) was 300 mg/kg/day; with rabbit [4] (setting [26]), 150 mg/kg/day; in the data set on dog [5] (setting [28]) it was > 52 mg/kg/day; with rat [6], > 125 mg/kg/day; in the data set with mouse [7] (setting [29]) it was 358 mg/kg/day; with rat [8] (setting [30]), 122 mg/kg/day. For the same compound, the LOAEL in the data set with rat [8] (group: parental, systemic / organ weight / liver / relative to body weight) was 419 mg/kg/day. Further, the NEL in the data set with rabbit [4] (setting [25]) is 150 mg/kg/day; with rabbit [4] (setting [27]) it was 30 mg/kg/day; in the data set on dog [5] (systemic / pathology microscopic / lung / [other]), 2 mg/kg/day; with rat [6], 12.5 mg/kg/day; with mouse [7] (systemic / organ weight / kidney / nos + systemic / in life observation / body weight / body weight gain) it was 18.8 mg/kg/day; with rat [8] (setting [31]) it was < 40 mg/kg/day. Besides, the NEL in the data set on rat [8] (setting [32]) was < 40 mg/kg/day. The no observed adverse effect level (NOAEL) with rabbit [4] (setting [25]) was 150 mg/kg/day; with rabbit [4] (setting [27]), 30 mg/kg/day; in the data set with dog [5] (setting [28]) it was ≥ 52 mg/kg/day; with rat [6] it was ≥ 125 mg/kg/day; with mouse [7] (setting [29]), 108 mg/kg/day; in the data set with rat [8] (group: offspring, systemic / in life observation / body weight / offspring (pup) weight + systemic / organ weight / liver / relative to body weight), 40 mg/kg/day. For the same compound, the NOAEL in the data set with rat [8] (group: parental, systemic / organ weight / liver / relative to body weight + systemic / in life observation / body weight / body weight + systemic / organ …) came to 122 mg/kg/day.

Regarding `c1ccc(Nc2ccccc2)cc1` [Diphenylamine], the LOAEL in the data set with mouse [9] (setting [33]) is 368 mg/kg/day; in the data set on rat [10] (setting [35]), 138 mg/kg/day; in the data set with rat [11] (setting [36]), 547 mg/kg/day; with rat [12] (setting [30]), 115 mg/kg/day; in the data set on rat [12] (setting [37]), 40 mg/kg/day; in the data set with rat [12] (setting [38]) it was 399 mg/kg/day. The lowest observed adverse effect level (LOAEL) with dog [13] (setting [39]) turned out to be 50 mg/kg/day. For the same compound, the NOAEL with mouse [9] (setting [33]) was 73.2 mg/kg/day; in the data set on rat [10] (setting [35]), 24.9 mg/kg/day; with rat [11] (setting [36]), 95.8 mg/kg/day; with rat [12] (setting [30]), 40 mg/kg/day; in the data set with rat [12] (setting [37]) it was < 40 mg/kg/day; in the data set on rat [12] (setting [38]), 115 mg/kg/day. Moreover, the no-observed-adverse-effect level (NOAEL) with dog [13] (setting [39]) amounted to 10 mg/kg/day. Besides, the LEL in the data set on mouse [9] (setting [34]) amounted to 73.2 mg/kg/day; in the data set with rat [10] (systemic / hematology / erythrocyte (rbc) count differential / erythrocyte (rbc) + systemic / pathology gross / spleen / discolored + …), 24.9 mg/kg/day; in the data set with rat [11] (systemic / pathology microscopic / spleen / hematopoietic cell proliferation erythrocytic) it was 95.8 mg/kg/day; in the data set on rat [12] (setting [30]), 115 mg/kg/day; in the data set on rat [12] (setting [37]), 40 mg/kg/day; with rat [12] (setting [38]) it was 399 mg/kg/day. Besides, in the data set on dog [13] (setting [40]), the LEL came out at 10 mg/kg/day. The NEL was < 73.2 mg/kg/day in the data set with mouse [9] (setting [34]); 7.5 mg/kg/day in the data set on rat [10] (setting [35]); 9.6 mg/kg/day in the data set with rat [11] (setting [36]); 40 mg/kg/day in the data set on rat [12] (setting [30]); < 40 mg/kg/day in the data set with rat [12] (setting [37]); 115 mg/kg/day in the data set on rat [12] (setting [38]). In addition, in the data set with dog [13] (setting [40]), the NEL is < 10 mg/kg/day.

Turning to `CCC(C)n1c(=O)[nH]c(C)c(Br)c1=O` (stereo unspecified) [Bromacil], the LEL in the data set with mouse [14] was 36 mg/kg/day; with rat [15] (setting [41]), 200 mg/kg/day; in the data set on rat [15] (setting [43]) it was 75 mg/kg/day; with rabbit [16] (setting [45]), 500 mg/kg/day; in the data set with rabbit [16] (setting [46]), 300 mg/kg/day; with rat [17] (setting [47]), 1.96 mg/kg/day. The LOAEL in the data set on mouse [14] is 36 mg/kg/day; in the data set on rat [15] (setting [41]), 200 mg/kg/day; in the data set with rat [15] (setting [43]), 75 mg/kg/day; in the data set with rabbit [16] (setting [45]), > 500 mg/kg/day; in the data set on rabbit [16] (setting [46]), 300 mg/kg/day; in the data set on rat [17] (systemic / in life observation / body weight / body weight gain), 9.82 mg/kg/day. Also, the NEL in the data set with mouse [14] was < 36 mg/kg/day; with rat [15] (setting [42]) it was 75 mg/kg/day; with rat [15] (setting [44]) it was 20 mg/kg/day; with rabbit [16] (setting [45]), 300 mg/kg/day; in the data set with rabbit [16] (setting [46]), 100 mg/kg/day; with rat [17] (setting [47]) it was < 1.96 mg/kg/day. Besides, the NOAEL was < 36 mg/kg/day in the data set with mouse [14]; 75 mg/kg/day in the data set on rat [15] (setting [42]); 20 mg/kg/day with rat [15] (setting [44]); ≥ 500 mg/kg/day in the data set on rabbit [16] (setting [45]); 100 mg/kg/day in the data set with rabbit [16] (setting [46]); 1.96 mg/kg/day in the data set with rat [17] (systemic / in life observation / body weight / body weight gain + systemic / in life observation / body weight / body weight + systemic / …).

One may read the LOAEL as the lowest tested level that showed an adverse finding. In general, NOAEL refers to the highest dose or exposure tested at which no adverse effect was seen.
